Source: patent US5968795A, “Biaryl acetylenes as inhibitors of matrix metalloproteases” (Bayer Corporation, priority 1997, dated 1999)
Where two headings read alike, the source gives them in different places.

Tests used:
[1] = target: T1, Human Recombinant Gelatinase B (MMP-9) (Homo sapiens, UniProt P14780); assay: P218 quenched fluorescence assay for MMP inhibition: MMP-9; assay type: biochemical; conditions: P218 substrate 6 μM, pH 6.5, 25 min at 37° C.; for IC50: read-out: MMP-9 Fluorogenic IC-50; for MMP-9 Fluorogenic, I (percent inhibition): inhibitor concentration not given
T1 construct: made in house; host or cells: baculovirus protein expression system
Source text: (§1) P218 Quenched Fluorescence Assay for MMP Inhibition:
(§2) The P218 quenched fluorescence assay (Microfluorometric Profiling Assay) is a modification of that originally described by Knight, et al., FEBS Lett. 296, 263, 1992 for a related substance and a variety of matrix metalloproteinases (MMPs) in cuvettes. The assay was run with each invention compound and the three MMPs, MMP-3, MMP-9 and MMP-2, analyzed in parallel, adapted as follows for a 96-well microtiter plate and a Hamilton AT® workstation.
(§3) P218 Fluorogenic Substrate:
(§4) P218 is a synthetic substrate containing a 4-acetyl-7-methoxycoumarin (MCA) group in the N-terminal position and a 3-[2,4-dinitrophenyl]-L-2,3-diaminopropionyl (DPA) group internally. This is a modification of a peptide reported by Knight (1992) that was used as a substrate for matrix metalloproteinases. Once the P218 peptide is cleaved (putative clip site at the Ala-Leu bond), the fluorescence of the MCA group can be detected on a fluorometer with excitation at 328 nm and emission at 393 nm. P218 is currently being produced BACHEM exclusively for Bayer. P218 has the structure:
(§5) H-MCA-Pro-Lys-Pro-Leu-Ala-Leu-DPA-Ala-Arg-NH2 (MW 1332.2)
Preparation of Human Recombinant Pro-Gelatinase B (MMP-9):
Recombinant Human Pro-MMP-9: Human pro-gelatinase B (pro-MMP-9) derived from U937 cDNA as described by Wilhelm, et al. J. Biol. Chem. 264, 17213, 1989 was expressed as the full-length form using a baculovirus protein expression system. The pro-enzyme was purified using methods previously described by Hibbs, et al. J. Biol. Chem. 260, 2493, 1984.
Activation of Pro-MMP-9: Pro-MMP-2 20 μg/ml in 50 mM Tris at pH 7.4, 10 mM CaCl2, 150 mM NaCl, and 0.005% Brij-35 (MMP-9 activation buffer) was activated by incubation with 0.5 mM p-aminophenylmercuric acetate (APMA) for 3.5 h at 37° C. The enzyme was dialyzed against the same buffer to revmove the APMA.
(§6) Hamiltion Microlab AT Plus: The MMP-Profiling Assay is performed robotically on a Hamilton MicroLab AT Plus®. The Hamilton is programmed to: (1) serially dilute up to 11 potential inhibitors automatically from a 2.5 mM stock in 100% DMSO; (2) distribute substrate followed by inhibitor into a 96 well Cytofluor plate; and (3) add a single enzyme to the plate with mixing to start the reaction. Subsequent plates for each additional enzyme are prepared automatically by beginning the program at the substrate addition point, remixing the diluted inhibitors and beginning the reaction by addition of enzyme. In this way, all MMP assays were done using the same inhibitor dilutions.
(§7) Millipore Cytofluor II. Following incubation, the plate was read on a Cytofluor II fluorometric plate reader with excitation at 340 nm and emission at 395 nm with the gain set at 80.
(§8) Microfluorometric Reaction Buffer (MRB): Dilution of test compounds, enzymes, and P218 substrate for the microfluorometric assay were made in microfluorometric reaction buffer consisting of 50 mM 2-(N-morpholino)ethanesulfonic acid (MES) at pH 6.5 with 10 mM CaCl2, 150 mM NaCl, 0.005% Brij-35 and 1% DMSO.
(§9) MMP Microfluorometric Profiling Assay. The assay is done with a final substrate concentration of 6 μM P218 and approximately 0.5 to 0.8 nM MMP with variable drug concentrations. The Hamilton is programmed to serially dilute up to 11 compounds from a 2.5 mM stock (100% DMSO) to 10x the final compounds concentrations in the assay. Initially, the instrument delivers various amounts of microfluoromentric reaction buffer (MRB) to a 96 tube rack of 1 ml Marsh dilution tubes. The instrument then picks up 20 μl of inhibitor (2.5 mM) from the sample rack and mixes it with a buffer in row A of the Marsh rack, resulting in a 50 μM drug concentration. The inhibitors are then serially diluted to 10, 5, 1, 0.2, 0.05 and 0.01 μM. […]

[2] = target: T2, Human Recombinant Gelatinase A (MMP-2) (Homo sapiens, UniProt P08253); assay: P218 quenched fluorescence assay for MMP inhibition: MMP-2; assay type: biochemical
T2 sequence (P08253 110-660): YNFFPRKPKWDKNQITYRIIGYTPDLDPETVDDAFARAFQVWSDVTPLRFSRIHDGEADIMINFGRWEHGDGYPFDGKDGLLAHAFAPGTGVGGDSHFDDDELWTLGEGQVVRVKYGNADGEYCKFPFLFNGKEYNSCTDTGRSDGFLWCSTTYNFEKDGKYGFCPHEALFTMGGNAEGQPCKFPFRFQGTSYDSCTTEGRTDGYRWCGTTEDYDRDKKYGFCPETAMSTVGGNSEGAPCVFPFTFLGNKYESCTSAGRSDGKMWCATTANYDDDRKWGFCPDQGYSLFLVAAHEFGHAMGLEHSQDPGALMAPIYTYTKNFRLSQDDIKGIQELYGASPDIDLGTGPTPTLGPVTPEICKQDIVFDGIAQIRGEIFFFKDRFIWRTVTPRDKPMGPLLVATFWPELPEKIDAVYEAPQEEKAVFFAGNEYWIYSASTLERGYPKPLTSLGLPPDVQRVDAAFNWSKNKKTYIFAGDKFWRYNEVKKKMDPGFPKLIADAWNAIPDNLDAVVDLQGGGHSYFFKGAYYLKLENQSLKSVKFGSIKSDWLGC

[3] = target: T3, Recombinant Human CHO Stromelysin (MMP-3) (Homo sapiens, UniProt P08254); assay: P218 quenched fluorescence assay for MMP inhibition: MMP-3; assay type: biochemical; conditions: P218 substrate 6 μM, pH 6.5, 25 min at 37° C.; read-out: MMP-3 Fluorogenic IC-50
T3 construct: made in house; host or cells: CHO cells (as described by Housley et al., J. Biol. Chem. 268, 4481, 1993)
Source text: as §1, §2, §3, §4, §5
Recombinant Human CHO Stromelysin (MMP-3)
Recombinant Human CHO Pro-MMP-3: Human CHO pro-stromelysin-257 (pro-MMP-3) was expressed and purified as described by Housley, et al., J. Biol. Chem. 268, 4481, 1993.
Activation of Pro-MMP-3: Pro-MMP-3 at 1.72 μM (100 μg/mL) in 5 mM Tris at pH 7.5, 5 mM CaCl2, 25 mM NaCl, and 0.005% Brij-35 MMP-3) activation buffer) was activated by incubation with TPCK (N-tosyl-(L)-phenylalanine chloromethyl ketone) trypsin (1:100 w/w to pro-MMP-3) at 25° C. for 30 min. The reaction was stopped by addition of soybean trypsin inhibitor (SBTI; 5:1 w/w to trypsin concentration). This activation protocol results in the formation of 45 kDa active MMP-3, which still contains the C-terminal portion of the enzyme.
as §6, §7, §8, §9

[4] = Child, et al., J. Pharm. Sci. 66, 466, 1977; cited from earlier work
human colon tumor = conditions: given intraperitoneally; orthotopic model in nude mice; cited from earlier work
[5] = tested on: human ovarian carcinoma xenografts; conditions: given intraperitoneally; cited from earlier work
[6] = P218 substrate 6 μM, pH 6.5, 25 min at 37° C., read-out: MMP-2 Fluorogenic IC-50

T1 sequence (P14780 107-707 limits assumed): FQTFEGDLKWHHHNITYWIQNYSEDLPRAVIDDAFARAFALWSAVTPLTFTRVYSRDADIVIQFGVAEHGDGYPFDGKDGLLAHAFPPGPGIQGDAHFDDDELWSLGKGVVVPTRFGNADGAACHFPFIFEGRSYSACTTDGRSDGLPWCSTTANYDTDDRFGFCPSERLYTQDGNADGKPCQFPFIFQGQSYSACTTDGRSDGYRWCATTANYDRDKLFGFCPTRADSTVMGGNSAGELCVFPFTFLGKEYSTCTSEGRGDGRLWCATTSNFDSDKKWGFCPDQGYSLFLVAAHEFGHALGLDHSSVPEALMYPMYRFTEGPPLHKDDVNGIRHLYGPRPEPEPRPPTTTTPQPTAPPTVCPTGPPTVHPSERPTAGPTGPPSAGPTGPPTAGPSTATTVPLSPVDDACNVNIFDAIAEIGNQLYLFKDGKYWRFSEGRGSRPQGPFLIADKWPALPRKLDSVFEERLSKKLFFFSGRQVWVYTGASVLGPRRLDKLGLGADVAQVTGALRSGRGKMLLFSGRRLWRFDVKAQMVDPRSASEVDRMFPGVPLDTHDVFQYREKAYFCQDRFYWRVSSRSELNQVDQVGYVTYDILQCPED
T3 sequence (P08254 100-477): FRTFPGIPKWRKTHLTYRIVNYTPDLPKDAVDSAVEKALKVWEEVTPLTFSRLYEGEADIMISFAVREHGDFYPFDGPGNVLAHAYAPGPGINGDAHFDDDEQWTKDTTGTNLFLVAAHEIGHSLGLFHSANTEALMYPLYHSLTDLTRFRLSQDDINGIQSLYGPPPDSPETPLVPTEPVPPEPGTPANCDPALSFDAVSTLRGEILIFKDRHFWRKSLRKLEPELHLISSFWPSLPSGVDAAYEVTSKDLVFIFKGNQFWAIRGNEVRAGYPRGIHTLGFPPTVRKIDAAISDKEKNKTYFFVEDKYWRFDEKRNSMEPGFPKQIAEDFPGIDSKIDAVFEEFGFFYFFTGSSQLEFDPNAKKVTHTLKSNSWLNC

| SMILES | IC50 [1] | IC50 [2, 6] | IC50 [3] | other results |
| --- | --- | --- | --- | --- |
| CC(=O)OCCC#Cc1ccc(-c2ccc(C(=O)CC(CCCc3ccccc3)C(=O)O)cc2)cc1 (stereo not shown) [IX] | 0.542 µM | 0.037 µM | 0.057 µM |  |
| O=C(CC(CCCc1ccccc1)C(=O)O)c1ccc(-c2ccc(C#CCCO)cc2)cc1 (stereo not drawn) [VIII, 4'-(4-hydroxy-1-butynyl)-λ-oxo-α-(3-phenylpropyl)-[1,1'-biphenyl]-4-butanoic acid] | 0.122 µM | 0.006 µM | 0.032 µM |  |
| CCCN(CC#Cc1ccc(-c2ccc(C(=O)CC(CCCc3ccccc3)C(=O)O)cc2)cc1)CCC (stereo not shown) [Compound V] | 2.63 µM | 0.235 µM | 0.327 µM |  |
| O=C(C[C@H](CCCc1ccccc1)C(=O)O)c1ccc(-c2ccc(C#CCO)cc2)cc1 [II, S-4'-(3-hydroxy-1-propynyl)-λ-oxo-α-(3-phenylpropyl)-[1,1'-biphenyl]-4-butanoic acid] |  | 0.252 µM | 2.18 µM | MMP-9 Fluorogenic, I (percent inhibition) [1]: 35% |
| O=CCCCC#Cc1ccc(-c2ccc(C(=O)CC(CCCc3ccccc3)C(=O)O)cc2)cc1 (stereo not drawn) [Compound XI, λ-oxo-4'-(5-oxo-1-pentynyl)-α-(3-phenylpropyl)-[1,1'biphenyl]-4-butanoic acid] |  | 0.596 µM | 1.73 µM | MMP-9 Fluorogenic, I (percent inhibition) [1]: 24% |
| COCC#Cc1ccc(-c2ccc(C(=O)CC(CCCc3ccccc3)C(=O)O)cc2)cc1 (stereo not drawn) [IV, 4'-(3-methoxy-1-propynyl)-λ-oxo-α-(3-phenylpropyl)-[1,1'-biphenyl]-4-butanoic acid] | 0.704 µM | 0.021 µM | 0.038 µM |  |
| O=C(CC(CCN1C(=O)c2ccccc2C1=O)C(=O)O)c1ccc(-c2ccc(C#CCOCc3ccccc3)cc2)cc1 (stereo not drawn) [Compound XV, 1,3-dihydro-1,3-dioxo-α-[2-oxo-2-[4'-[3(phenylmethoxy)-1-propynyl][1,1'-biphenyl]-4-yl]ethyl]-2H-isoindole-2-butanoic acid] | 0.04 µM | 0.005 µM | 0.011 µM |  |
| O=C(CC(CCN1C(=O)c2ccccc2C1=O)C(=O)O)c1ccc(-c2ccc(C#CCO)cc2)cc1 (stereo not shown) [Compound XVI] | 0.002 µM |  | 0.004 µM | IC50 [2]: 0.001 µM |
| O=C(CC(CCCc1ccccc1)C(=O)O)c1ccc(-c2ccc(C#Cc3cccc(O)c3)cc2)cc1 (stereo not shown) [XIV] |  | 0.085 µM | 0.125 µM | MMP-9 Fluorogenic, I (percent inhibition) [1]: 46% |
| O=C(O)CCC#Cc1ccc(-c2ccc(C(=O)CC(CCCc3ccccc3)C(=O)O)cc2)cc1 (stereo not drawn) [Compound X, 4'-(4-carboxy-1-butynyl)-λ-oxo-α-(3-phenylpropyl)-[1,1'-biphenyl]-4-butanoic acid] |  | 0.108 µM | 0.203 µM | MMP-9 Fluorogenic, I (percent inhibition) [1]: 27% |
| CC(=O)OCC#Cc1ccc(-c2ccc(C(=O)CC(CCCc3ccccc3)C(=O)O)cc2)cc1 (stereo not drawn) [Compound VI, 4'-[3-(acetyloxy)-1-propynyl]-λ-oxo-α-(3-phenylpropyl)-[1,1'-biphenyl]-4-butanoic acid] | 0.834 µM | 0.014 µM | 0.036 µM |  |
| CC(CC(=O)c1ccc(-c2ccccc2)cc1)C(=O)O (stereo not shown) [compound XLVII] |  |  |  | anti-inflammatory activity (in words) [4]: inactive |
| O=C(CC(CCCc1ccccc1)C(=O)O)c1ccc(-c2ccc(C#Cc3ccccc3)cc2)cc1 (stereo not drawn) [XIII, λ-oxo-4'-(phenylethynyl)-α-(3-phenylpropyl)-[1,1'-biphenyl]-4-butanoic acid] |  | 0.245 µM | 0.405 µM |  |
| CCOC(=O)OCC#Cc1ccc(-c2ccc(C(=O)CC(CCCc3ccccc3)C(=O)O)cc2)cc1 (stereo not drawn) [Compound VII, 4'-[3-[(ethoxycarbonyl)oxy]-1-propynyl]-λ-oxo-α-(3-phenylpropyl)-[1,1'-biphenyl]-4-butanoic acid] | 2.46 µM | 0.103 µM | 0.067 µM |  |
| O=C(CC(C(=O)O)c1ccccc1)c1ccc(-c2ccccc2)cc1 (stereo not shown) [XLIX] |  |  |  | anti-inflammatory activity (in words) [4]: inactive |
| CNC(=O)[C@H](Cc1ccccc1)NC(=O)[C@H](CC(C)C)[C@H](CSc1cccs1)C(=O)NO [batimastat] |  |  |  | human colon tumor growth and spread (human colon tumor): inhibits human colon tumor growth and spread; survival of mice bearing human ovarian carcinoma xenografts [5]: prolongs the survival of mice |
| O=C(CC(CCCc1ccccc1)C(=O)O)c1ccc(-c2ccc(C#CCO)cc2)cc1 (racemic) [Compound I] | 0.106 µM | 0.004 µM | 0.021 µM |  |
| O=C(CC(CCCc1ccccc1)C(=O)O)c1ccc(-c2ccc(C#CCCCCO)cc2)cc1 (stereo not shown) [XII] | 0.614 µM | 0.036 µM | 0.0566 µM |  |
| O=C(C[C@@H](CCCc1ccccc1)C(=O)O)c1ccc(-c2ccc(C#CCO)cc2)cc1 [III] | 0.037 µM | 0.001 µM | 0.005 µM |  |
| O=C(O)CC(C(=O)c1ccc(-c2ccccc2)cc1)c1ccccc1 (stereo not shown) [LXXVII] |  |  |  | anti-inflammatory activity (in words) [4]: inactive |
